We go through 1 molecule from US20190046446A1, “APO-E MODIFIED LIPID NANOPARTICLES FOR DRUG DELIVERY TO TARGETED TISSUES AND THERAPEUTIC METHODS” (Eriochem USA, LLC, priority 2016, published 2019).

A short description of data set [1]: Liver accumulation of Docetaxel in rabbits. It counts as in vivo. Particulars: iv, 2.5 mg/kg DCX. On the procedure:
In measuring the liver accumulation, the animals were randomly divided into four groups following the above plasma assay. The groups were as follows:
The livers of the rabbits were totally removed at 24 hours and 36 hours, then weighed, frozen and stored at […]. The rabbit liver samples were precipitated with acetonitrile, followed by solid phase extraction (SPE), evaporation and resuspension of the resulting extract in a solvent and then analyzed by injection into LC ESI MS/MS. The determinations were performed by liquid chromatography and mass spectrometry (using a Shimadzu UFLC XR liquid chromatograph coupled to a AB Sciex 3200 QTrap mass spectrometer).
Values are Media±SEM. (N=5).

Data set [2] deals with A549 (lung cancer epithelial cells). Kind of data set: In vitro cytotoxicity assay (MTS), A549. It counts as cell-based, human. The procedure:
50 μL of the cell suspensions were seeded in 96-well plates in duplicate with Dulbecco's basal medium plus 10% fetal bovine serum supplemented with 10% fetal bovine serum (FBS) for PC-3, and with DMEM/Ham's F12 medium containing 10% FBS, 1% 1-glutamine for A549 cell line. Both were maintained in culture for 24 hours. The cells were then treated with serial diluted concentrations of DCX starting from 100 nM and incubated for 48 hours. At the end of incubation, 20 μL/well of MTS/PMs solution (2 mL of MTS with 100 μL of PMS solution) were added. Then, plates were incubated at 37° C., 5% CO2 for 4 hours. […] The result allowed for conditions for evaluating the growth inhibition of the Nano+DCX and Nano+DCX+ApoE3 to be defined.
Absorbance values obtained from the in vitro cytotoxicity assay of DCX, Nano+DCX, and Nano+DCX+ApoE3 samples were plotted based on the DCX concentration employed, using OriginPro 8 software (ORIGINLAB Corporation, USA). The IC50 (nM) of each of the samples was determined at 50% of the maximum absorbance value obtained, corresponding to the value obtained for the growth control. The anti-proliferation effect shown on different cells with DCX, Nano+DCX, and Nano+DCX+ApoE3 decreased cell proliferation.

Data set [3] in a line: In vitro drug release by dialysis against human plasma. It is filed as in vitro ADME. Particulars: dialysis against 10% human plasma, 37° C., up to 72 hours. The procedure: Drug release kinetics were evaluated in vitro by comparing solutions containing:
The respective solution samples were placed in 12 KDa dialysis bags and dialyzed against a 10% V/V solution of human plasma for 72 hours at 37° C. in an orbital shaker with constant agitation at 60 rpm. Assays were then performed in triplicate, with samples taken from each solution at 0, 1, 2, 3, 6, 9, 24, 48, and 72 hours after dialysis initiation. […] The recovered organic phase was dried in a rotary evaporator, and the obtained dry material was resuspended in acetonitrile for further HPLC analysis.

SMILES strings stand for the structures. Several values for one entry are separate records, joined by “and”; a condition that tells them apart may be missing. Identical values can stand only once. Like-named read-outs stand apart in the source and are kept apart here.

Consider `CC(=O)O[C@@]12CO[C@@H]1C[C@H](O)[C@@]1(C)C(=O)[C@H](O)C3=C(C)[C@@H](OC(=O)[C@H](O)[C@@H](NC(=O)OC(C)(C)C)c4ccccc4)C[C@@](O)([C@@H](OC(=O)c4ccccc4)[C@H]21)C3(C)C` [TAXOTERE, Docetaxel], for which the “DCX Concentration in Liver” value worked out at 446 ± 66 in data set [1] (24 hours) and 495 ± 126 in data set [1] (36 hours). Moreover, the IC50 (usually the concentration needed to halve the response being measured) stood at 8.75 nM in data set [2] (Homo sapiens, A549, 48 h, Normal Serum, 48 hours, read-out: IC50 in A549, individual tests); 25.5 nM in data set [2] (Homo sapiens, A549, 48 h, Serum Free of Lipoprotein, 48 hours, read-out: IC50 in A549, individual tests); 34 nM in data set [2] (Homo sapiens, A549, LP-FREE SERUM, Table 18, read-out: IC50 A549); 9 nM in data set [2] (Homo sapiens, A549, NORMAL SERUM, Table 18, read-out: IC50 A549); 8.7 ± 0.7 nM in data set [2] (Homo sapiens, A549, Normal Serum, average of tests, read-out: IC50 in A549); 33.8 ± 3.2 nM in data set [2] (Homo sapiens, A549, Serum Free of Lipoprotein, average of tests, read-out: IC50 in A549). Moreover, the IC50 in data set [2] (Homo sapiens, A549, lung cancer cell cultures, without lipoproteins, read-out: IC50) is 34 nM; in data set [2] (Normal Serum, 48 hours, listed as DCX, read-out: IC50 in A549, individual tests) it was 6.65 nM and 9.6 nM and 9.9 nM; in data set [2] (Serum Free of Lipoprotein, 48 hours, listed as DCX, read-out: IC50 in A549, individual tests) it was 33 nM and 37.5 nM and 45.5 nM and 36.5 nM and 25 nM. Also, in data set [2] (LP-FREE SERUM, SI=IC50 (Vero)/IC50 (A549)), the “Si A549” value was 4. Further, in data set [2] (NORMAL SERUM, SI=IC50 (Vero)/IC50 (A549), listed as DCX), the “SI A549” value amounted to 16. The “times more toxic in the presence of lipoproteins” value in data set [2] (lung cancer cell cultures) is recorded as 3.8 times. Besides, in data set [3], the “Docetaxel release, comparison between solutions” value is given as “released more decetaxel than the lipid nanoparticles”.
